Experimental data published in patent publication US8293724B2, “Therapeutic applications of fatty acid amide hydrolase inhibitors” (The United States of America, as represented by the …, priority 2007, dated 2012).

Columns and labels:
[1] = target: CB1 cannabinoid receptor (Homo sapiens, UniProt P21554); experiment: Affinity for the CB1 cannabinoid receptor; assay type: binding
[2] = tested on: anandamide transporter; experiment: Inhibition of the anandamide transporter (anandamide uptake); assay type: cell-based; conditions: concentrations of up to 20 μM
[3] = tested on: male DIO mice (wild-type C57Bl6/J on high-fat diet); experiment: Intraperitoneal glucose tolerance test in wild-type mice with diet-induced obesity; assay type: in vivo; conditions: AM3506 1 mg/kg i.p., 60 min before glucose 1.5 g/kg i.p., 1 mg/kg
Description: Male C57Bl6/J mice, wild-type or liver-specific CB1 receptor knockout, were kept on a diet containing 60% of calories as fat (Research Diets Inc) for 14 weeks, by which time both strains have become fat due to increased adipose mass. […] Sixty minutes later the mice received 1.5 g/kg glucose i.p. and blood glucose levels were monitored for 2 hours.

[4] = target: T1, FAAH (Rattus norvegicus, UniProt P97612); experiment: Hepatic FAAH activity in SHR and WKY after i.p. treatment; assay type: in vivo; conditions: AM3506 1 mg/kg, n=3-5
T1 construct: from tissue; host or cells: liver of SHR and WKY rats treated in vivo
T1 sequence (P97612 1-579): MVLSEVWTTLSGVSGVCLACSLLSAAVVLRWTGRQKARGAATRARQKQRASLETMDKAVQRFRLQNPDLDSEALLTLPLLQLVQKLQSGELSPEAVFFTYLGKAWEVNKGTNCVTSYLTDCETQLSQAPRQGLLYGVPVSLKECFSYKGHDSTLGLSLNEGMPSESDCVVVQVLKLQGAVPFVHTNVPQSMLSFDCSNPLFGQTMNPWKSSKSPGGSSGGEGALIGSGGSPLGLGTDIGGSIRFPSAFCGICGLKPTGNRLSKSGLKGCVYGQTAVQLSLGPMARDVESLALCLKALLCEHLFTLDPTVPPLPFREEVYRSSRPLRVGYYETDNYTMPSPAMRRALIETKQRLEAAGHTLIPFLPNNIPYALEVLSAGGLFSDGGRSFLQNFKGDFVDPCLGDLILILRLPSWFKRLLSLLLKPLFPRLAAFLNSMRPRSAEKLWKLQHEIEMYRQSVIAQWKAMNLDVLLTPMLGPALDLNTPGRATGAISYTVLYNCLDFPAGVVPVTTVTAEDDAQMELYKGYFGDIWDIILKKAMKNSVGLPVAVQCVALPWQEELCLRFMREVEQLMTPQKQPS

[5] = target: T2, FAAH (Mus musculus, UniProt O08914); experiment: FAAH activity in brain and liver homogenates following in vivo administration; set-up: species or system mice
T2 construct: the brain and liver removed, and tissue homogenates prepared as described above; from tissue; host or cells: mouse brain and liver homogenates after in vivo dosing
T2 sequence (O08914 1-579): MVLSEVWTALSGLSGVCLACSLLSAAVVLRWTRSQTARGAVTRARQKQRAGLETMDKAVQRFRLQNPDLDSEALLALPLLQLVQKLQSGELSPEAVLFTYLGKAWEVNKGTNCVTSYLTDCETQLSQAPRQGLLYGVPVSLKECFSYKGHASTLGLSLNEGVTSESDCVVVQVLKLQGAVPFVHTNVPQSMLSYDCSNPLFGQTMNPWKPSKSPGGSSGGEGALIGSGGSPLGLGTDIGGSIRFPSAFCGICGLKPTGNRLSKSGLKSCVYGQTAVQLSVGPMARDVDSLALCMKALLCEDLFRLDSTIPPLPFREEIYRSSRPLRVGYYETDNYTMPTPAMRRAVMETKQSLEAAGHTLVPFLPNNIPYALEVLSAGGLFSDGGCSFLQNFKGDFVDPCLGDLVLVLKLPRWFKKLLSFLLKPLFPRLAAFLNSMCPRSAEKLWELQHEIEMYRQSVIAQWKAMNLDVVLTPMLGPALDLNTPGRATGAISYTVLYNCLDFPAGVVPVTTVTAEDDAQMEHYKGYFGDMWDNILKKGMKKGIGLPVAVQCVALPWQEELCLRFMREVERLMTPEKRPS
Description: For the experiments illustrated in FIG. 3, FAAH activity was assessed through a different method not requiring TLC separation, as described by Jonsson et al: Br. J. Pharmacol. 133:1263-1275, 1997. […] The mice were sacrificed one hour later, the brain and liver removed, and tissue homogenates prepared as described above. [^3H]Anandamide labeled on the ethanolamide moiety was added to the homogenate and incubated at 37° C. for 10 min. The homogenate was then extracted twice with chloroform:methanol 1:1 and the radioactivity in the aqueous phase (containing the released ethanolamide) was counted.

[6] = tested on: conscious SHR; experiment: Blood pressure and heart rate in conscious SHR; assay type: in vivo, rat; conditions: versus dosage
[7] = Non-fasting blood glucose in SHR and WKY; conditions: AM3506 1 mg/kg i.p., n=6

CB1 cannabinoid receptor, sequence (P21554 whole entry): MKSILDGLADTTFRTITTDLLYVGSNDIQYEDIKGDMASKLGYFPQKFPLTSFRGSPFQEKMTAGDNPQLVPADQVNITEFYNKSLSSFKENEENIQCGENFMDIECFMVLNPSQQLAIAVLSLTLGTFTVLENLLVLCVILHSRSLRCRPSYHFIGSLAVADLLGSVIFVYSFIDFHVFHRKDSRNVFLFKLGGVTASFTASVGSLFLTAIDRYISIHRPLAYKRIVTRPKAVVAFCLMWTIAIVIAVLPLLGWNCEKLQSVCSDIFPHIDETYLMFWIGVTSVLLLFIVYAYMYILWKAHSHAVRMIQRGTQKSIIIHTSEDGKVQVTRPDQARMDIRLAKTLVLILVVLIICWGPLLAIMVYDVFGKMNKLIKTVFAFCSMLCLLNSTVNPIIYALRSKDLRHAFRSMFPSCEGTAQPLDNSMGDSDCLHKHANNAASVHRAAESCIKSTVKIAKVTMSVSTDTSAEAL

O=S(=O)(F)CCCCCc1ccc(O)cc1 [AM3506]
Ki [1]: 0.192 µM | inhibition of the anandamide transporter [2]: did not inhibit | glucose intolerance [3]: had no such effect | reduction of hepatic FAAH activity ([4]; SHR): 11.1±0.04% | reduction of hepatic FAAH activity ([4]; WKY): 6.7±0.2% | inhibition of FAAH in liver ([5]; AM3506 1 mg/kg): devoid of inhibitory potency in liver | dose equivalence in inhibition of FAAH in brain ([5]; AM3506 1 mg/kg versus URB597 10 mg/kg): equieffective with 10 mg/kg URB597 | MBP ([6]; n=4, FIG. 4A): decrease MBP | heart rate ([6]; n=4, FIG. 5A): moderate bradycardia only at 1 mg/kg dose | non-fasting blood glucose after treatment ([7]; SHR, from 97.8±5.6): 97.8 ± 2.9 mg/dL | non-fasting blood glucose after treatment ([7]; WKY, from 114.5±5.3): 108.2 ± 4.5 mg/dL
